Test results from the OligoGym collection.
Oligonucleotides are given in HELM: sugar(base)linkage, 5' to 3'; d 2'-deoxyribose, r ribose, m 2'-O-methylribose, p phosphate. ss, as = sense and antisense strand

Biological target: UBE2K
Assay: reporter assay of Huesken 2005
Details: siRNA
Also: test concentration or dose not given here.

Substance	normalised inhibition (eCFP-eYFP dual reporter) [%]
RNA1{r(U)p.r(U)p.r(G)p.r(U)p.r(A)p.r(G)p.r(A)p.r(U)p.r(G)p.r(A)p.r(G)p.r(A)p.r(A)p.r(U)p.r(U)p.r(U)p.r(U)p.r(A)p.r(C)p.d(T)p.d(T)}|RNA2{r(G)p.r(U)p.r(A)p.r(A)p.r(A)p.r(A)p.r(U)p.r(U)p.r(C)p.r(U)p.r(C)p.r(A)p.r(U)p.r(C)p.r(U)p.r(A)p.r(C)p.r(A)p.r(A)p.d(G)p.d(A)}$$$RNA1{StrandType:ss}|RNA2{StrandType:as}$	55.1
RNA1{r(U)p.r(G)p.r(A)p.r(A)p.r(G)p.r(G)p.r(A)p.r(G)p.r(G)p.r(A)p.r(A)p.r(G)p.r(A)p.r(U)p.r(A)p.r(C)p.r(C)p.r(A)p.r(A)p.d(T)p.d(T)}|RNA2{r(U)p.r(U)p.r(G)p.r(G)p.r(U)p.r(A)p.r(U)p.r(C)p.r(U)p.r(U)p.r(C)p.r(C)p.r(U)p.r(C)p.r(C)p.r(U)p.r(U)p.r(C)p.r(A)p.d(T)p.d(A)}$$$RNA1{StrandType:ss}|RNA2{StrandType:as}$	82.7
RNA1{r(A)p.r(A)p.r(A)p.r(U)p.r(C)p.r(C)p.r(C)p.r(G)p.r(A)p.r(A)p.r(A)p.r(U)p.r(G)p.r(U)p.r(U)p.r(C)p.r(A)p.r(A)p.r(A)p.d(T)p.d(T)}|RNA2{r(U)p.r(U)p.r(U)p.r(G)p.r(A)p.r(A)p.r(C)p.r(A)p.r(U)p.r(U)p.r(U)p.r(C)p.r(G)p.r(G)p.r(G)p.r(A)p.r(U)p.r(U)p.r(U)p.d(T)p.d(G)}$$$RNA1{StrandType:ss}|RNA2{StrandType:as}$	73.8
RNA1{r(A)p.r(G)p.r(A)p.r(A)p.r(A)p.r(C)p.r(A)p.r(U)p.r(A)p.r(C)p.r(C)p.r(C)p.r(A)p.r(U)p.r(U)p.r(U)p.r(A)p.r(A)p.r(U)p.d(T)p.d(T)}|RNA2{r(A)p.r(U)p.r(U)p.r(A)p.r(A)p.r(A)p.r(U)p.r(G)p.r(G)p.r(G)p.r(U)p.r(A)p.r(U)p.r(G)p.r(U)p.r(U)p.r(U)p.r(C)p.r(U)p.d(G)p.d(G)}$$$RNA1{StrandType:ss}|RNA2{StrandType:as}$	72.3
RNA1{r(A)p.r(G)p.r(G)p.r(A)p.r(C)p.r(C)p.r(U)p.r(C)p.r(C)p.r(A)p.r(G)p.r(A)p.r(C)p.r(A)p.r(C)p.r(A)p.r(C)p.r(C)p.r(A)p.d(T)p.d(T)}|RNA2{r(U)p.r(G)p.r(G)p.r(U)p.r(G)p.r(U)p.r(G)p.r(U)p.r(C)p.r(U)p.r(G)p.r(G)p.r(A)p.r(G)p.r(G)p.r(U)p.r(C)p.r(C)p.r(U)p.d(G)p.d(C)}$$$RNA1{StrandType:ss}|RNA2{StrandType:as}$	74.6
RNA1{r(G)p.r(A)p.r(U)p.r(G)p.r(C)p.r(U)p.r(G)p.r(U)p.r(A)p.r(G)p.r(U)p.r(A)p.r(G)p.r(C)p.r(A)p.r(A)p.r(A)p.r(U)p.r(C)p.d(T)p.d(T)}|RNA2{r(G)p.r(A)p.r(U)p.r(U)p.r(U)p.r(G)p.r(C)p.r(U)p.r(A)p.r(C)p.r(U)p.r(A)p.r(C)p.r(A)p.r(G)p.r(C)p.r(A)p.r(U)p.r(C)p.d(C)p.d(T)}$$$RNA1{StrandType:ss}|RNA2{StrandType:as}$	65.5

Biological target: UBE2N
Assay: reporter assay of Huesken 2005
Details: siRNA

Substance	normalised inhibition (eCFP-eYFP dual reporter) [%]
RNA1{r(G)p.r(A)p.r(A)p.r(G)p.r(C)p.r(C)p.r(C)p.r(A)p.r(A)p.r(G)p.r(C)p.r(C)p.r(A)p.r(U)p.r(A)p.r(G)p.r(A)p.r(A)p.r(A)p.d(T)p.d(T)}|RNA2{r(U)p.r(U)p.r(U)p.r(C)p.r(U)p.r(A)p.r(U)p.r(G)p.r(G)p.r(C)p.r(U)p.r(U)p.r(G)p.r(G)p.r(G)p.r(C)p.r(U)p.r(U)p.r(C)p.d(G)p.d(T)}$$$RNA1{StrandType:ss}|RNA2{StrandType:as}$	90.3
RNA1{r(A)p.r(C)p.r(U)p.r(U)p.r(G)p.r(A)p.r(A)p.r(C)p.r(U)p.r(A)p.r(U)p.r(U)p.r(C)p.r(C)p.r(U)p.r(U)p.r(C)p.r(C)p.r(A)p.d(T)p.d(T)}|RNA2{r(U)p.r(G)p.r(G)p.r(A)p.r(A)p.r(G)p.r(G)p.r(A)p.r(A)p.r(U)p.r(A)p.r(G)p.r(U)p.r(U)p.r(C)p.r(A)p.r(A)p.r(G)p.r(U)p.d(T)p.d(T)}$$$RNA1{StrandType:ss}|RNA2{StrandType:as}$	96.1
RNA1{r(A)p.r(U)p.r(G)p.r(U)p.r(C)p.r(U)p.r(A)p.r(G)p.r(A)p.r(U)p.r(A)p.r(U)p.r(U)p.r(U)p.r(U)p.r(G)p.r(A)p.r(A)p.r(A)p.d(T)p.d(T)}|RNA2{r(U)p.r(U)p.r(U)p.r(C)p.r(A)p.r(A)p.r(A)p.r(A)p.r(U)p.r(A)p.r(U)p.r(C)p.r(U)p.r(A)p.r(G)p.r(A)p.r(C)p.r(A)p.r(U)p.d(A)p.d(T)}$$$RNA1{StrandType:ss}|RNA2{StrandType:as}$	75.9
RNA1{r(A)p.r(U)p.r(G)p.r(U)p.r(G)p.r(G)p.r(U)p.r(C)p.r(A)p.r(U)p.r(U)p.r(G)p.r(C)p.r(U)p.r(G)p.r(G)p.r(C)p.r(C)p.r(C)p.d(T)p.d(T)}|RNA2{r(G)p.r(G)p.r(G)p.r(C)p.r(C)p.r(A)p.r(G)p.r(C)p.r(A)p.r(A)p.r(U)p.r(G)p.r(A)p.r(C)p.r(C)p.r(A)p.r(C)p.r(A)p.r(U)p.d(G)p.d(A)}$$$RNA1{StrandType:ss}|RNA2{StrandType:as}$	47.1
RNA1{r(C)p.r(G)p.r(U)p.r(U)p.r(U)p.r(C)p.r(A)p.r(U)p.r(G)p.r(A)p.r(C)p.r(C)p.r(A)p.r(A)p.r(A)p.r(A)p.r(U)p.r(U)p.r(U)p.d(T)p.d(T)}|RNA2{r(A)p.r(A)p.r(A)p.r(U)p.r(U)p.r(U)p.r(U)p.r(G)p.r(G)p.r(U)p.r(C)p.r(A)p.r(U)p.r(G)p.r(A)p.r(A)p.r(A)p.r(C)p.r(G)p.d(T)p.d(A)}$$$RNA1{StrandType:ss}|RNA2{StrandType:as}$	100
RNA1{r(G)p.r(C)p.r(A)p.r(A)p.r(A)p.r(U)p.r(G)p.r(A)p.r(U)p.r(G)p.r(U)p.r(A)p.r(G)p.r(C)p.r(G)p.r(G)p.r(A)p.r(G)p.r(C)p.d(T)p.d(T)}|RNA2{r(G)p.r(C)p.r(U)p.r(C)p.r(C)p.r(G)p.r(C)p.r(U)p.r(A)p.r(C)p.r(A)p.r(U)p.r(C)p.r(A)p.r(U)p.r(U)p.r(U)p.r(G)p.r(C)p.d(T)p.d(A)}$$$RNA1{StrandType:ss}|RNA2{StrandType:as}$	49.8
RNA1{r(G)p.r(A)p.r(A)p.r(A)p.r(C)p.r(A)p.r(G)p.r(C)p.r(U)p.r(A)p.r(G)p.r(A)p.r(G)p.r(C)p.r(A)p.r(U)p.r(G)p.r(G)p.r(A)p.d(T)p.d(T)}|RNA2{r(U)p.r(C)p.r(C)p.r(A)p.r(U)p.r(G)p.r(C)p.r(U)p.r(C)p.r(U)p.r(A)p.r(G)p.r(C)p.r(U)p.r(G)p.r(U)p.r(U)p.r(U)p.r(C)p.d(T)p.d(A)}$$$RNA1{StrandType:ss}|RNA2{StrandType:as}$	100
RNA1{r(C)p.r(A)p.r(G)p.r(U)p.r(U)p.r(C)p.r(C)p.r(U)p.r(G)p.r(G)p.r(C)p.r(A)p.r(U)p.r(C)p.r(A)p.r(A)p.r(A)p.r(G)p.r(C)p.d(T)p.d(T)}|RNA2{r(G)p.r(C)p.r(U)p.r(U)p.r(U)p.r(G)p.r(A)p.r(U)p.r(G)p.r(C)p.r(C)p.r(A)p.r(G)p.r(G)p.r(A)p.r(A)p.r(C)p.r(U)p.r(G)p.d(G)p.d(T)}$$$RNA1{StrandType:ss}|RNA2{StrandType:as}$	61.4
RNA1{r(G)p.r(G)p.r(U)p.r(C)p.r(C)p.r(C)p.r(C)p.r(A)p.r(G)p.r(C)p.r(A)p.r(C)p.r(U)p.r(G)p.r(C)p.r(A)p.r(G)p.r(A)p.r(U)p.d(T)p.d(T)}|RNA2{r(A)p.r(U)p.r(C)p.r(U)p.r(G)p.r(C)p.r(A)p.r(G)p.r(U)p.r(G)p.r(C)p.r(U)p.r(G)p.r(G)p.r(G)p.r(G)p.r(A)p.r(C)p.r(C)p.d(A)p.d(C)}$$$RNA1{StrandType:ss}|RNA2{StrandType:as}$	62.2
RNA1{r(U)p.r(U)p.r(U)p.r(C)p.r(A)p.r(U)p.r(G)p.r(U)p.r(G)p.r(G)p.r(U)p.r(C)p.r(A)p.r(U)p.r(U)p.r(G)p.r(C)p.r(U)p.r(G)p.d(T)p.d(T)}|RNA2{r(C)p.r(A)p.r(G)p.r(C)p.r(A)p.r(A)p.r(U)p.r(G)p.r(A)p.r(C)p.r(C)p.r(A)p.r(C)p.r(A)p.r(U)p.r(G)p.r(A)p.r(A)p.r(A)p.d(A)p.d(T)}$$$RNA1{StrandType:ss}|RNA2{StrandType:as}$	39.8
RNA1{r(U)p.r(G)p.r(G)p.r(C)p.r(A)p.r(U)p.r(C)p.r(A)p.r(A)p.r(A)p.r(G)p.r(C)p.r(C)p.r(G)p.r(A)p.r(A)p.r(C)p.r(C)p.r(A)p.d(T)p.d(T)}|RNA2{r(U)p.r(G)p.r(G)p.r(U)p.r(U)p.r(C)p.r(G)p.r(G)p.r(C)p.r(U)p.r(U)p.r(U)p.r(G)p.r(A)p.r(U)p.r(G)p.r(C)p.r(C)p.r(A)p.d(G)p.d(G)}$$$RNA1{StrandType:ss}|RNA2{StrandType:as}$	81.6
RNA1{r(U)p.r(G)p.r(A)p.r(U)p.r(C)p.r(C)p.r(A)p.r(U)p.r(U)p.r(A)p.r(G)p.r(C)p.r(A)p.r(A)p.r(A)p.r(U)p.r(G)p.r(A)p.r(U)p.d(T)p.d(T)}|RNA2{r(A)p.r(U)p.r(C)p.r(A)p.r(U)p.r(U)p.r(U)p.r(G)p.r(C)p.r(U)p.r(A)p.r(A)p.r(U)p.r(G)p.r(G)p.r(A)p.r(U)p.r(C)p.r(A)p.d(T)p.d(C)}$$$RNA1{StrandType:ss}|RNA2{StrandType:as}$	70.2
RNA1{r(U)p.r(A)p.r(G)p.r(A)p.r(G)p.r(C)p.r(A)p.r(U)p.r(G)p.r(G)p.r(A)p.r(C)p.r(U)p.r(A)p.r(G)p.r(G)p.r(C)p.r(U)p.r(A)p.d(T)p.d(T)}|RNA2{r(U)p.r(A)p.r(G)p.r(C)p.r(C)p.r(U)p.r(A)p.r(G)p.r(U)p.r(C)p.r(C)p.r(A)p.r(U)p.r(G)p.r(C)p.r(U)p.r(C)p.r(U)p.r(A)p.d(G)p.d(C)}$$$RNA1{StrandType:ss}|RNA2{StrandType:as}$	73.8
RNA1{r(C)p.r(U)p.r(U)p.r(U)p.r(G)p.r(A)p.r(G)p.r(G)p.r(G)p.r(A)p.r(G)p.r(G)p.r(G)p.r(A)p.r(C)p.r(U)p.r(U)p.r(U)p.r(U)p.d(T)p.d(T)}|RNA2{r(A)p.r(A)p.r(A)p.r(A)p.r(G)p.r(U)p.r(C)p.r(C)p.r(C)p.r(U)p.r(C)p.r(C)p.r(C)p.r(U)p.r(C)p.r(A)p.r(A)p.r(A)p.r(G)p.d(G)p.d(G)}$$$RNA1{StrandType:ss}|RNA2{StrandType:as}$	70.6
